Assay results reported in patent US10669272B2, “Substituted naphthyridinone compounds useful as T cell activators” (BRISTOL-MYERS SQUIBB COMPANY, priority 2018, dated 2020).
Read-outs that look alike come from different tables or passages of the source.

Columns and labels:
human DGKζ = target: T1, human DGKζ (Homo sapiens, UniProt Q13574); assay: DGKζ LIPGLO assay (extruded liposome substrate), in vitro DGK inhibition; format: biochemical; conditions: read-out: DGKz LIPGLO IC50
T1 construct: TVMV protease cleavage site (C); Hexa-His (C); made in house; host or cells: Sf9 insect cells (baculovirus, Bac-to-Bac)

human DGKα = target: T2, human DGKα (Homo sapiens, UniProt P23743); assay: DGKα LIPGLO assay (extruded liposome substrate), in vitro DGK inhibition; format: biochemical; conditions: read-out: DGKa LIPGLO IC50
T2 construct: TVMV protease cleavage site (C); Hexa-His (C); made in house; host or cells: Sf9 insect cells (baculovirus, Bac-to-Bac)

Human venous whole blood = assay: Human whole blood IFN-γ assay; format: cell-based; conditions: human whole blood, read-out: INFg Whole Blood Normalized Agonist EC50;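 also: blood from healthy donors exposed to compound for 1 h before stimulation with anti-CD3 and anti-CD28 at 1 µg/mL each, IFN-γ quantified in supernatant by AlphaLISA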
[1] = normalized to 3 μM reference compound with anti-CD3 plus anti-CD28 as 100% activation
[2] = anti-CD3 plus anti-CD28, 24 hours, 3 μM reference compound = 100% activation
[3] = Homo sapiens, 24 h, normalized to 3 μM reference compound with anti-CD3 plus anti-CD28 as 100% activation
[4] = Homo sapiens, 24 h, anti-CD3 plus anti-CD28, 24 hours, 3 μM reference compound = 100% activation

T2 sequence (P23743 with tags, fused parts or gaps): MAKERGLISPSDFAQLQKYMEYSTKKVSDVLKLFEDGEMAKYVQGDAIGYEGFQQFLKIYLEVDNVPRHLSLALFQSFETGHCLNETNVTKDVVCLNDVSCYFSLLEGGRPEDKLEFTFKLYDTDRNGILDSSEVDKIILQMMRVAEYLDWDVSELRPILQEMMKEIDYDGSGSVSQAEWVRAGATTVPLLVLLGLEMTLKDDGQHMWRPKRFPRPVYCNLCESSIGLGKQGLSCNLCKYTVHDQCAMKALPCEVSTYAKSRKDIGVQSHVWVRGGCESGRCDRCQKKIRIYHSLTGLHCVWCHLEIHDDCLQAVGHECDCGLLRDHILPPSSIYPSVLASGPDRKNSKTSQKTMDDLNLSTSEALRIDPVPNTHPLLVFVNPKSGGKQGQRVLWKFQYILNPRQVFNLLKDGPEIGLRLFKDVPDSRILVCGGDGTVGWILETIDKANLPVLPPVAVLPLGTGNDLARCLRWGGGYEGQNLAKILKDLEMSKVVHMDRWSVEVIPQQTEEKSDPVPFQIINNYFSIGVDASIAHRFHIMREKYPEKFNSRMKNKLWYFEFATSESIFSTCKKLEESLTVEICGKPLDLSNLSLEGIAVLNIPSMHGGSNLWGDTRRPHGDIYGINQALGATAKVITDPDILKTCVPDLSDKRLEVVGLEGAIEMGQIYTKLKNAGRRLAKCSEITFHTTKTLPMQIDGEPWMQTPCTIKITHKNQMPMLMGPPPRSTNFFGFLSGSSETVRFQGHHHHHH
T1 sequence (Q13574 with tags, fused parts or gaps isoform Q13574-4): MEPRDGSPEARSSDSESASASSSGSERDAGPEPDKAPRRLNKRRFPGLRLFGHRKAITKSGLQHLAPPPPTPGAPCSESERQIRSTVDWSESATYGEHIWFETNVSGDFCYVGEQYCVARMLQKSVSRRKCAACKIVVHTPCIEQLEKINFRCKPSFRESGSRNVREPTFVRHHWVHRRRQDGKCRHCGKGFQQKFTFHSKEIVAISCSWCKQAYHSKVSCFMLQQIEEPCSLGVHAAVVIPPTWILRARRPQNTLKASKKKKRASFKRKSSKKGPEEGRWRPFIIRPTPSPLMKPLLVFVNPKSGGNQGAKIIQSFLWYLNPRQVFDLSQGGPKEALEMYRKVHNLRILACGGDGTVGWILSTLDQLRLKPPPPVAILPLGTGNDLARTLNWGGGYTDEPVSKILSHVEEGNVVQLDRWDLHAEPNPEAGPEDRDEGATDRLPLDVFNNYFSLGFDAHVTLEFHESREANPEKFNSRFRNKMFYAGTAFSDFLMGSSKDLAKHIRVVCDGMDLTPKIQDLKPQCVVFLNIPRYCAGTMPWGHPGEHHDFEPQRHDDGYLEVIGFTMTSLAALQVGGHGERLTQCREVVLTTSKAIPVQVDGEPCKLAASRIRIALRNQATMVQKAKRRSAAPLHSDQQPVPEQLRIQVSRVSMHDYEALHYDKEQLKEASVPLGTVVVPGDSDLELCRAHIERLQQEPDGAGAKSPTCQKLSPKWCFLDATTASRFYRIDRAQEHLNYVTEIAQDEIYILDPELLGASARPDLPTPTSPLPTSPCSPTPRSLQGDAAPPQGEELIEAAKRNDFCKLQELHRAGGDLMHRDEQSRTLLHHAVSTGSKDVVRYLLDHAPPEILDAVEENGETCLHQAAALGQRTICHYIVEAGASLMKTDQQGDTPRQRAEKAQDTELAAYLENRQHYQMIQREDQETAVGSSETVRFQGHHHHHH

Row | SMILES | IC50 (human DGKζ; liposome (LIPGLO) assay) | IC50 (human DGKα; liposome (LIPGLO) assay) | IC50 (human DGKζ; DGKζ liposome (LIPGLO) assay) | IC50 (human DGKα; DGKα liposome (LIPGLO) assay) | EC50 (Human venous whole blood; [1]) | EC50 (Human venous whole blood; [2]) | EC50 (Human venous whole blood; [3]) | EC50 (Human venous whole blood; [4])
1 | C[C@@H]1CN(c2c(F)c(=O)n(C)c3ccc(C#N)nc23)[C@@H](C)CN1C(c1ccc(F)cc1)c1c(F)cccc1F (single isomer, unassigned) [Example 336] | 230 nM | 740 nM |  |  | 2000 nM |  |  | 
2 | Cc1ccc(C(c2ccc(F)cc2Cl)N2C[C@H](C)N(c3c(C#N)c(=O)n(C)c4ccc(C#N)nc34)C[C@H]2C)nc1 (stereo partly drawn) [Example 832] |  |  | 2700 nM | 19000 nM |  | 1800 nM |  | 
3 | CCOC[C@@H]1CN(c2cc(=O)n(C)c3ccc(C#N)nc23)[C@@H](C)CN1C(c1ccc(F)cc1)c1ccc(C(F)(F)F)cn1 (stereo partly drawn) [Example 1403] | 45 nM | 1100 nM |  |  | 1900 nM |  |  | 
4 | C[C@@H]1CN(c2cc(=O)n(C)c3ccc(C#N)nc23)[C@@H](C)CN1C(c1ccc(F)cc1)c1cccnn1 (single isomer, unassigned) [Example 383] | 13000 nM | 5600 nM |  |  |  |  | 3200 nM | 
5 | Cc1ccc(C(c2ccc(Cl)cc2)N2CCN(c3c(C#N)c(=O)n(C)c4ccc(C#N)nc34)C[C@H]2C)cc1 (single isomer, unassigned) [Example 944] |  |  | 41000 nM | 37000 nM |  | 6700 nM |  | 
6 | C[C@@H]1CN(c2c(C#N)c(=O)n(C)c3ccc(C#N)nc23)[C@@H](C)CN1C(c1ccc(F)cc1)c1cnn(C)c1 (stereo partly drawn) [Example 846] |  |  | 8600 nM | 12000 nM |  |  |  | 5100 nM
7 | Cc1ccnc(C(c2ccc(F)cc2)N2C[C@H](C)N(c3cc(=O)n(C)c4ccc(C#N)nc34)C[C@H]2C)c1 (single isomer, unassigned) [Example 456] | 1000 nM | 230 nM |  |  | 1100 nM |  |  | 
8 | Cc1ccc(F)c(CN2CCN(c3c(C#N)c(=O)n(C)c4ccc(C#N)nc34)C[C@H]2C)c1 [Example 1006] |  |  | 7000 nM | 2600 nM |  |  |  | 11000 nM
9 | COC[C@@H]1CN(c2cc(=O)n(C)c3ccc(C#N)nc23)[C@@H](C)CN1C(c1ccc(F)cc1)c1nc(C2CC2)cs1 (single isomer, unassigned) [Example 1396] | 12 nM | 62 nM |  |  | 26 nM |  |  | 
10 | CC[C@@H]1CN(c2cc(=O)n(C)c3ccc(C#N)nc23)[C@@H](C)CN1C(C)c1ccc(C(F)(F)F)cc1 (single isomer, unassigned) [Example 1093] | 180 nM | 250 nM |  |  |  |  | 130 nM | 
11 | C[C@@H]1CN(c2cc(=O)n(C)c3ccc(C#N)nc23)[C@@H](C)CN1C(c1ccc(F)cc1)c1cccc(C(F)F)n1 (single isomer, unassigned) [Example 697] | 59 nM | 740 nM |  |  | 200 nM |  |  | 
12 | CCC(c1ccc(OC(F)(F)F)cc1)N1C[C@H](CC)N(c2cc(=O)n(C)c3ccc(C#N)nc23)C[C@H]1CC (single isomer, unassigned) [Example 1060] | 630 nM | 340 nM |  |  |  |  | 2500 nM | 
13 | C[C@H]1CN(C(c2ccc(F)cc2)c2ccon2)[C@H](CO)CN1c1cc(=O)n(C)c2ccc(C#N)nc12 (single isomer, unassigned) [Example 1392] | 3800 nM | 1900 nM |  |  | 14000 nM |  |  | 
14 | C[C@@H]1CN(c2cc(=O)n(C)c3ccc(C#N)nc23)[C@@H](C)CN1Cc1cc(C#N)cs1 [Example 1422, 8-((2S,5R)-4-((4-cyanothiophen-2-yl)methyl)-2,5-dimethylpiperazin-1-yl)-5-methyl-6-oxo-5,6-dihydro-1,5-naphthyridine-2-carbonitrile] | 4200 nM | 290 nM |  |  |  |  | 6900 nM | 

Further lines, with some results ahead:

Row | IC50 (human DGKζ; liposome (LIPGLO) assay) | IC50 (human DGKα; liposome (LIPGLO) assay) | IC50 (human DGKζ; DGKζ liposome (LIPGLO) assay) | IC50 (human DGKα; DGKα liposome (LIPGLO) assay) | SMILES | EC50 (Human venous whole blood; [1]) | EC50 (Human venous whole blood; [2]) | EC50 (Human venous whole blood; [3]) | EC50 (Human venous whole blood; [4])
15 | 26000 nM | 89000 nM |  |  | C[C@@H]1CN(c2cc(=O)n(C)c3ccc(C#N)nc23)[C@@H](C)CN1C(c1ccc(F)cc1)c1nc(C2CN(C)C2)no1 (single isomer, unassigned) [Example 1299] | 15000 nM |  |  | 
16 | 790 nM | 620 nM |  |  | CC[C@H]1CN(C(c2ccc(F)cc2)c2ccc(C(F)(F)F)cn2)[C@H](C)CN1c1cc(=O)n(C)c2ccc(C#N)nc12 (single isomer, unassigned) [Example 1132] | 1600 nM |  |  | 
17 | 530 nM | 24000 nM |  |  | Cc1ccc(C(c2cccc3c2OCCCO3)N2C[C@H](C)N(c3cc(=O)n(C)c4ccc(C#N)nc34)C[C@H]2C)nc1 (single isomer, unassigned) [Example 451] | 7600 nM |  |  | 
18 | 8000 nM | 12000 nM |  |  | CC(c1cccc(C(F)(F)F)n1)N1C[C@H](C)N(c2cc(=O)n(C)c3ccc(C#N)nc23)C[C@H]1C (single isomer, unassigned) [Example 636] | 3900 nM |  |  | 
19 | 3500 nM | 650 nM |  |  | CC[C@H]1CN(Cc2cc(F)c(F)c(F)c2)[C@H](C)CN1c1cc(=O)n(C)c2ccc(C#N)nc12 [Example 1149] |  |  | 510 nM | 
20 | 460 nM | 140 nM |  |  | C[C@@H]1CN(c2cc(=O)n(C)c3ccc(C#N)nc23)[C@@H](C)CN1C(c1ccc(Cl)cc1)c1ccccn1 (mixture of isomers) [Example 403, 8-((2S,5R)-4-((4-chlorophenyl)(pyridin-2-yl)methyl)-2,5-dimethylpiperazin-1-yl)-5-methyl-6-oxo-5,6-dihydro-1,5-naphthyridine-2-carbonitrile] |  |  | 170 nM | 
21 | 58 nM | 21 nM |  |  | CC[C@H]1CN(C(C)c2ccc(OC(F)(F)F)cc2F)[C@H](CC)CN1c1cc(=O)n(C)c2ccc(C#N)nc12 (single isomer, unassigned) [Example 1371] | 150 nM |  |  | 
22 | 1000 nM | 2100 nM |  |  | CC(c1cccc(OC(F)(F)F)c1)N1C[C@H](C)N(c2cc(=O)n(C)c3ccc(C#N)nc23)C[C@H]1C (single isomer, unassigned) [Example 1268] |  |  | 5200 nM | 
23 |  |  | 7200 nM | 3500 nM | COC(=O)c1cccc(C(C)N2CCN(c3c(C#N)c(=O)n(C)c4ccc(C#N)nc34)C[C@H]2C)c1 (single isomer, unassigned) [Example 983] |  | 13000 nM |  | 
24 |  |  | 2700 nM | 710 nM | COc1ncccc1C(c1ccc(F)cc1)N1CCN(c2c(C#N)c(=O)n(C)c3ccc(C#N)nc23)C[C@H]1C (single isomer, unassigned) [Example 895] |  | 1800 nM |  | 
25 |  |  | 12000 nM | 2900 nM | C[C@@H]1CN(c2c(C#N)c(=O)n(C)c3ccc(C#N)nc23)CCN1C(c1ccc(F)cc1)c1cocn1 (stereo partly drawn) [Example 1022] |  |  |  | 2500 nM
26 |  |  | 1000 nM | 48000 nM | Cc1ccc(C)c(C(C)N2CCN(c3c(C#N)c(=O)n(C)c4ccc(C#N)nc34)C[C@H]2C)c1 (single isomer, unassigned) [Example 977] |  | 4900 nM |  | 
27 | 160 nM | 270 nM |  |  | CC[C@@H]1CN(c2cc(=O)n(C)c3ccc(C#N)nc23)[C@@H](C)CN1C(c1ccc(F)cc1)c1nc(C2CC2)cs1 (single isomer, unassigned) [Example 1339] | 100 nM |  |  | 
28 | 3200 nM | 3300 nM |  |  | C[C@@H]1CN(c2cc(=O)n(C)c3ccc(C#N)nc23)[C@@H](C)CN1C(c1ccccc1)c1ccc(Cl)cc1 (single isomer, unassigned) [Example 671] | 1200 nM |  |  | 
29 |  |  | 8400 nM | 7200 nM | C[C@@H]1CN(c2c(C#N)c(=O)n(C)c3ccc(C#N)nc23)CCN1C(c1ccc(F)cc1)c1cnn(C)c1 (stereo partly drawn) [Example 1017] |  | 3300 nM |  | 
30 | 680 nM | 75 nM |  |  | CC(c1ccc(OC(F)(F)F)cc1)N1C[C@H](CO)N(c2cc(=O)n(C)c3ccc(C#N)nc23)C[C@H]1C (single isomer, unassigned) [Example 1419] |  |  | 1100 nM | 
31 |  |  | > 250000 nM | > 250000 nM | CC(c1ccccc1C(F)(F)F)N1CCN(c2c(C#N)c(=O)n(C)c3ccc(C#N)nc23)C[C@H]1C (single isomer, unassigned) [Example 968] |  | 20000 nM |  | 
32 | 1700 nM | 4200 nM |  |  | CCC(c1ccc(OC(C)C)cc1)N1C[C@H](C)N(c2cc(=O)n(C)c3ccc(C#N)nc23)C[C@H]1CC (single isomer, unassigned) [Example 1448] | 1600 nM |  |  | 
